# Reference: US20060167229A1, “Biologically active peptide conjugates” (priority 2002, published 2006)
# Marks after values point to notes of the source that are not given here. Ends that are not written are not given here.
# B1: IFN-γ: recombinant mouse IFN-γ (rmIFN-γ), Beijing Biotech Inc.; positive control (protein, UniProt P01580 23-155, looked up)
# Interferon gamma: HGTVIESLESLNNYFNSSGIDVEEKSLFLDIWRNWQKDGDMKILQSQIISFYLRLFEVLKDNQAISNNISVIESHLITTFFSNSKAKKDAFMSIAKFEVNNPQVQRQAFNELIRVVHQLLPESSLRKRKRSRC
# Key:
# Type in all cases: in vivo, BALB/c mice
# thymus gland = experiment: Immunity organ weight test, thymus gland index; details: for weight of thymus gland (thymus gland index), X ± SD (%): healthy mice, saline 0.12 ± 0.02; for effect on the weight of the thymus gland (summary): statistically significant difference from saline in any of the dosage groups 0.5-500 μg/kg/day
# Procedure: (§1) One day after the last test substance administration (day 16), the liver, spleen, and thymus gland were separated and blotted dry with filter paper and weighed. The phagocytosis index α was calculated as below: α=(^3√{square root over ( )}K)(W÷WLS)
# Thymus gland index (%)=(thymus weight/body weight)×100%
# spleen = experiment: Immunity organ weight test, spleen index; details: for weight of spleen (spleen index), X ± SD (%): healthy mice, saline 0.53 ± 0.05; for effect on the weight of the spleen (summary): statistically significant difference from saline in any of the dosage groups 0.5-500 μg/kg/day
# Procedure: as §1
# Spleen index (%)=(spleen weight/body weight)×100%
# NK cell = NK cell cytotoxicity activity test (spleen cells of treated mice against YAC-1 target cells, MTT); details: for NK cell cytotoxic activity, X ± SD (%): healthy mice; for effect on the cytotoxic activity of NK cells (summary): statistically significant difference from saline in any of the dosage groups 0.5-500 μg/kg/day
# Procedure, shortened: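 Mice (10 per group) dosed i.p. once daily for 15 days in saline; spleen cells harvested the next day. Splenocytes (4×10^6/ml) co-cultured with YAC-1 targets (1×10^5/ml), in triplicate per mouse. Viability by MTT (1 mg/ml, 4 h, 37 °C), read at OD570 against 630 nm.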
# mononuclear phagocyte = experiment: Carbon particle clearance test, phagocytosis function; set-up: key to X ± SD (phagocytotic index): α = cube root of K × (body weight ÷ liver+spleen weight); details: for X ± SD (phagocytotic index): healthy mice, saline 5.1 ± 0.6; for effect on the phagocytotic activity of mononuclear phagocyte (summary): statistically significant difference from saline in any of the dosage groups 0.5-500 μg/kg/day
# Procedure, shortened: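 Clearance index K came from OD680 of blood sampled 1 and 5 min after tail-vein India ink ([…], diluted 5×), given on day 16. Phagocytic index α combined K with liver, spleen […] weights taken the same day.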
# anti-SRBC antibody = experiment: Sheep Red Blood Cell (SRBC) hemolysis test, antibody formation; details: for anti-SRBC antibody formation, X ± SD (Unit): healthy mice, SRBC day 12 (IFN-γ, IL-2 3×10^5 IU/kg/day), saline 32 ± 7; for effect on the synthesis of anti-SRBC antibody upon the antigenic challenge (summary): statistically significant difference from saline in any of the dosage groups 0.5-500 μg/kg/day
# Procedure, shortened: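 Mice immunized intraperitoneally with 0.2 ml SRBC on day 12; serum taken on day 16, diluted 500-fold. Serum incubated with 2% SRBC and guinea pig complement 10 min at 37° C; released haemoglobin read at OD540 with Drabkin solution. Serum index = (sample OD540 ÷ reference OD540) × 500.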
# [1] = peptide 0.5 μg/kg/day i.p. 15 days (IFN-γ, IL-2 3×10^5 IU/kg/day)
# [2] = peptide 50 μg/kg/day i.p. 15 days (IFN-γ, IL-2 3×10^5 IU/kg/day)
# [3] = peptide 500 μg/kg/day i.p. 15 days (IFN-γ, IL-2 3×10^5 IU/kg/day)
# [4] = Table 28, peptide 5 μg/kg/day (so in the source) i.p. 15 days (IFN-γ, IL-2 3×10^5 IU/kg/day)
# [5] = peptide 0.5 μg/kg/day i.p. 15 days (IFN-γ, IL-2 3×10^5 IU/kg/day), saline 58 ± 7
# [6] = peptide 5 μg/kg/day i.p. 15 days (IFN-γ, IL-2 3×10^5 IU/kg/day), saline 60 ± 9
# [7] = peptide 5 μg/kg/day i.p. 15 days (IFN-γ, IL-2 3×10^5 IU/kg/day)
# [8] = peptide 5 μg/kg/day i.p. 15 days
# [9] = peptide 500 μg/kg/day i.p. 15 days
# [10] = peptide 0.5 μg/kg/day i.p. 15 days
# [11] = peptide 50 μg/kg/day i.p. 15 days
# [12] = peptide 500 μg/kg/day i.p. 15 days (IFN-γ, IL-2 3×10^5 IU/kg/day), saline 63 ± 9
Molecule,"weight of thymus gland (thymus gland index), X ± SD (%) (thymus gland; [1])","weight of thymus gland (thymus gland index), X ± SD (%) (thymus gland; [2])","weight of thymus gland (thymus gland index), X ± SD (%) (thymus gland; [3])",effect on the weight of the thymus gland (summary) (thymus gland),"weight of spleen (spleen index), X ± SD (%) (spleen; [4])",effect on the weight of the spleen (summary) (spleen),"NK cell cytotoxic activity, X ± SD (%) (NK cell; [5])","NK cell cytotoxic activity, X ± SD (%) (NK cell; [6])",X ± SD (phagocytotic index) (mononuclear phagocyte; [7]),X ± SD (phagocytotic index) (mononuclear phagocyte; [3]),effect on the phagocytotic activity of mononuclear phagocyte (summary) (mononuclear phagocyte),"anti-SRBC antibody formation, X ± SD (Unit) (anti-SRBC antibody; [8])","anti-SRBC antibody formation, X ± SD (Unit) (anti-SRBC antibody; [9])",effect on the synthesis of anti-SRBC antibody upon the antigenic challenge (summary) (anti-SRBC antibody),"weight of thymus gland (thymus gland index), X ± SD (%) (thymus gland; [7])","weight of spleen (spleen index), X ± SD (%) (spleen; [9])",effect on the cytotoxic activity of NK cells (summary) (NK cell),"anti-SRBC antibody formation, X ± SD (Unit) (anti-SRBC antibody; [10])","anti-SRBC antibody formation, X ± SD (Unit) (anti-SRBC antibody; [11])","NK cell cytotoxic activity, X ± SD (%) (NK cell; [12])",other results
KAVGHLDDLPGAL [CMS008],0.22 ± 0.07*^ %,0.20 ± 0.04*^@^ %,0.21 ± 0.03*^@^ %,increase,0.39 ± 0.08,decrease,46 ± 12,92 ± 4*^@^ %,6.4 ± 0.5,6.5 ± 1.2,enhance,97 ± 26*^@ Unit,82 ± 15*^@ Unit,enhance,–,–,–,–,–,–,–
RVAPQQHPTL [CMS011],–,–,–,–,–,decrease,79 ± 3,76 ± 10 %,6.4 ± 1.1,–,enhance,115 ± 27*^@^ Unit,188 ± 16*^@^ Unit,–,0.22 ± 0.04 %,0.41 ± 0.04,increase,5 ± 3 Unit,67 ± 9*^@ Unit,–,–
Tyr Ser Leu (YSL; listed as Sus scrofa) [CMS024],–,0.27 ± 0.02*^@^ %,–,increase,–,decrease,–,78 ± 3 %,–,6.4 ± 1.0,enhance,171 ± 39*^@^ Unit,75 ± 29*^@ Unit,enhance,0.23 ± 0.06*^ %,0.34 ± 0.05,increase,98 ± 6*^@^ Unit,–,89 ± 8 %,X ± SD (phagocytotic index) (mononuclear phagocyte; [1]): 6.7 ± 0.5*^; X ± SD (phagocytotic index) (mononuclear phagocyte; [2]): 6.6 ± 0.7
VAPEEHPTLLTEAPLNPK [CMS010],0.21 ± 0.03 %,–,0.19 ± 0.04 %,increase,0.38 ± 0.05,decrease,–,82 ± 9 %,7.1 ± 0.7*^,–,enhance,–,112 ± 30*^@^ Unit,–,0.27 ± 0.05*^@^ %,–,increase,10 ± 3 Unit,–,91 ± 4*^@^ %,–
VGMGQKDSYV [CMS020],0.23 ± 0.05*^@^ %,0.27 ± 0.03*^@^ %,0.19 ± 0.04 %,increase,–,increase,–,91 ± 6 %,–,6.4 ± 0.6,enhance,89 ± 24*^@ Unit,155 ± 35*^@^ Unit,–,0.24 ± 0.07*^@^ %,–,increase,10 ± 3 Unit,–,–,"weight of spleen (spleen index), X ± SD (%) (spleen; [1]): 0.68 ± 0.09*^@^ %"
B1,0.15 ± 0.04%,0.15 ± 0.04%,0.15 ± 0.04%,–,0.50 ± 0.04,–,72 ± 9,80 ± 8 %,6.4 ± 0.9,6.4 ± 0.9,–,37 ± 10 Unit,37 ± 10 Unit,–,0.15 ± 0.04%,–,–,37 ± 10 Unit,37 ± 10 Unit,77 ± 8 %,"weight of spleen (spleen index), X ± SD (%) (spleen; [1]): 0.50 ± 0.04%; NK cell cytotoxic activity, X ± SD (%) (NK cell; peptide 50 μg/kg/day i.p. 15 days (IFN-γ, IL-2 3×10^5 IU/kg/day), saline 56 ± 8): 73 ± 10 %; X ± SD (phagocytotic index) (mononuclear phagocyte; [1]): 6.4 ± 0.9; X ± SD (phagocytotic index) (mononuclear phagocyte; [2]): 6.4 ± 0.9"
